# Test results as given in US6436960B1, “Farnesyl transferase inhibitors having a piperidine structure and process for preparation thereof” (LG Chemical Ltd., priority 1998, dated 2002).
# Assays:
# [1] = target: T1, Ras farnesyl transferase (Rattus norvegicus, UniProt Q02293+Q04631); experiment: in vivo (cellular) Ras farnesyl transferase inhibitory activity, Rat2 cells expressing C-Harvey-Ras; assay type: cell-based
# T1 construct: endogenous in cells; host or cells: Rat2 fibroblasts transformed with C-Harvey-Ras, or with H-Ras carrying the K-Ras C-terminal polybasic lysine domain
# Protocol: (§1) In the present experiment, Rat2 cell line which expresses C-Harvey-Ras protein having transforming activity and Rat2 cell line(Korean patent application No. 97-14409) which is transformed with fused protein of H-Ras substituted with polybasic lysine domain at C-terminus of K-Ras were used. The experiment was performed by the modified Declue's method(Declue. J. E. et al., Cancer Research, 1991, 51, 712). Hereinafter, the experimental method will be described in more detail.
# (§2) 3×10^5 cells of transformed Rat2 fibroblast cell line were sprayed on 60 mm cell cultivation dish and cultivated for 48 hours in a cell incubator at 37° C. and after 50% or more of density was reached, it was treated with the test compounds. The compound according to the present invention dissolved in dimethylsulfoxide(DMSO) was used. 1% concentration of dimethylsulfoxide was used in both control and test groups. After 4 hours from the treatment with the compound, methionine labeled with 150 μCi of radioactive isotope [^35S] per 1 ml of medium was added and after cultivating for 20 hours, the cells were washed with physiological saline water. The cells were lysed using 1 ml of cold cell lysis buffer solution(50 mM of Sodium HEPES buffer solution containing 5 mM of magnesium chloride, 1 mM of DTT, 1% NP 40, 1 mM of EDTA, 1 mM of PMSF, 2 μM of leupeptin, 2 μM of pepstatin A and 2 μM of antipain) and the supernatant wherein the cells were lysed was obtained by high-velocity centrifugation of 12,000 g×5 minutes. The amount of radioisotope in the supernatant was measured and standardized to obtain a quantitative result in immunoprecipitation reaction and then, Y13-259, a monoclonal antiboby specifically binding to Ras protein(Furth, M. E. et al., J. Virol, 1982, 43, 294) was added and reacted for 15 hours at 4° C. Protein A(combined with goat anti-murine imunoglobulin antibody)-agarose suspension was added to the solution and reacted for 1 hour at 4° C. and then, to remove the unspecific binding product, immunoprecipitates were washed with a buffer solution (50 mM Tris chloride buffer solution containing 50 mM of sodium chloride, 0.5% of sodium dioxycholate, 0.5% of NP 40 and 0.1% of SDS). The precipitates were added to a buffer solution for electrophoresis and boiled and then, electrophoresis was performed using 13.5% of SDS polyacrylamide gel. After electrophoresis, the gel was fixed and dried. Then, the gel was exposed to X-ray film, developed and printed. From the result of the experiment, intensities of band of protein combined with or without farnesyl of Ras protein were measured, and the concentration of the test compound inhibiting 50% of farnesyl binding was defined as CIC50, an in vivo Ras farnesyl transferase inhibitory activity.
# [2] = target: T2, Ras farnesyl transferase (Homo sapiens, UniProt P49354+P49356); experiment: in vitro inhibitory activity for Ras farnesyl transferase, H-Ras substrate; assay type: biochemical
# T2 construct: made in house
# Protocol: (§3) In the present experiment, Ras farnesyl transferase produced by genetic recombination techniques according to the improved Pompliano's method (Pompliano et al., Biochemistry, 1992, 31, 3800) was used, and Ras substrate(Ras-CVLS) protein described in Korean Patent Appln. No. 97-14409 was used after it has been purified according to the known method(see, Chung et al., Biochimica et Biophysica Acta, 1992, 278, 1129).
# (§4) The enzyme reaction was performed in 50 μl of 50 mM Soduam HEPES buffer solution containing 25 mM of potassium chloride, 25 mM of magnesium chloride, 10 mM of DTT and 50 μM of zinc chloride. 1.5 μM of Ras substrate protein, 0.15 μM of tritium-farnesylpyrophosphate and 4.5 nM of farnesyl transferase were used.
# (§5) More specifically, in the initial step, farnesyl transferase was added to the above buffer solution, reaction was maintained for 30 minutes at 37° C. and then the reaction was stopped by adding 1 ml of ethanol solution containing 1M HCl. The formed precipitates were adsorbed to GF/B filter using Hopper harvestor(Hopper #FH 225V) for filter-binding, washed with ethanol, and then radioactivity of the dried filter was measured using LKB β counter. Enzyme titer was measured in the unsaturated state of substrate where the concentrations of Ras substrate protein and farnesyl transferase have quantitative relationship. The compound according to the present invention dissolved in dimethyl sulfoxide(DMSO) was added to the reaction solution in an amount of less than 5% of the total reaction solution, and then the enzyme inhibitory activity thereof was measured. The enzyme inhibitory activity was represented by percentage of the amount of farnesyl incorporated into the Ras substrate protein in the presence of the test compound to that in the absence of the test compound. IC50 of the test compound was defined as the concentration at which 50% of the enzyme activity was inhibited.
# [3] = target: T2, Ras farnesyl transferase; experiment: in vitro inhibitory activity for Ras farnesyl transferase, K-Ras substrate; assay type: biochemical
# Protocol: as §3, with “and Ras substrate(Ras-CVLS) protein described in Korean Patent” left out
# as §4, §5
# [4] = target: T1, Ras farnesyl transferase; experiment: in vivo (cellular) Ras farnesyl transferase inhibitory activity, Rat2 cells transformed with H-Ras fused with polybasic lysine domain of K-Ras; assay type: cell-based
# Protocol: as §1, §2
# [5] = Rat2 cell line expressing C-Harvey-Ras, concentration inhibiting 50% of farnesyl binding of Ras protein, read-out: H-Ras CIC50
# [6] = recombinant Ras farnesyl transferase, H-Ras substrate, tritium-farnesylpyrophosphate, 30 minutes at 37° C., read-out: H-Ras IC50
# [7] = recombinant Ras farnesyl transferase, K-Ras substrate, read-out: K-Ras IC50
# [8] = Rat2 cell line transformed with H-Ras substituted with polybasic lysine domain at C-terminus of K-Ras, concentration inhibiting 50% of farnesyl binding, read-out: K-Ras CIC50
Compound,"IC50 [1, 5]","IC50 [2, 6]","IC50 [3, 7]","IC50 [4, 8]",IC50 [1],IC50 [2],IC50 [3],IC50 [4]
"COCCN(C)C(=O)c1cn(Cc2cncn2CC2CCN(S(C)(=O)=O)CC2)cc1-c1cccc2ccccc12 [Compound 8, 3-[N-(2-Methoxyethyl)-N-methyl]carbamoyl-1-[1-(1-methylsulfonyl-piperidin-4-ylmethyl)-1H-imidazol-5-ylmethyl]-4-(naphthalen-1-yl)-1H-pyrrole]",10 to 100 nM,1.2 nM,10 to 100 nM,10 to 50 µM,,,,
CN1CCN(C(=O)c2cn(Cc3cncn3CC3CCN(C(=O)c4ccc5ccccc5c4)CC3)cc2-c2cccc3ccccc23)CC1 [Compound 49],350 nM,1.8 nM,12 nM,10 µM,,,,
"COC(=O)N1CCC(Cn2cncc2Cn2cc(C(=O)N3CCN(C)CC3)c(-c3cccc4ccccc34)c2)CC1 [Compound 40, 1-[1-(1-Methoxycarbonylpiperidin-4-yl)methyl-1H-imidazol-5-yl]methyl-3-(4-methylpiperazin-1-yl)carbonyl-4-(naphthalen-1-yl)1H-pyrrole]",30 nM,1.6 nM,4.2 nM,10 to 50 µM,,,,
COCCN(C)C(=O)c1cn(Cc2cncn2CC2CCN(C(=O)OC/C=C(\C)CCC=C(C)C)CC2)cc1-c1cccc2ccccc12 [Compound 21],10 to 100 nM,10 to 100 nM,50 nM,1 to 10 µM,,,,
"CN1CCN(C(=O)c2cn(Cc3cncn3CC3CCN(Cc4ccc(Oc5ccccc5)cc4)CC3)cc2-c2cccc3ccccc23)CC1 [Compound 57, 3-(4-Methylpiperazin-1-yl)carbonyl-4-(naphthalen-1-yl)-1-{1-[1-(4-phenoxybenzyl)piperidin-4-yl]methyl-1H-imidazol-5-yl}methyl-1H-pyrrole]",25 nM,11 nM,10 nM,10 µM,,,,
"COCCN(C)C(=O)c1cn(Cc2cncn2CC2CCN(C(=O)OCC(C)C)CC2)cc1-c1cccc2ccccc12 [Compound 35, 1-[1-(1-Isobutoxycarbonyl-piperidin-4-ylmethyl)-1H-imidazol-5-ylmethyl]-3-[N-(2-methoxyethyl)-N-methyl]carbamoyl-4-(naphthalen-1-yl)-1H-pyrrole]",10 to 100 nM,6 nM,10 to 100 nM,1 to 10 µM,,,,
COCCN(C)C(=O)c1cn(Cc2cncn2CC2CCN(C(=O)OC/C=C/c3ccccc3)CC2)cc1-c1cccc2ccccc12 [Compound 25],< 100 nM,6 nM,27 nM,1 to 10 µM,,,,
"CCCCNC(=O)N1CCC(Cn2cncc2Cn2cc(C(=O)N(C)CCOC)c(-c3cccc4ccccc34)c2)CC1 [Compound 10, 1-{1-[1-(N-Butylcarbamoyl)-piperidin-4-ylmethyl]-1H-imidazol-5-ylmethyl}-3[N-(2-methoxyethyl)-N-methyl]carbamoyl-4-(naphthalen-1-yl)-1H-pyrrole]",10 to 100 nM,1 to 10 nM,10 to 1000 nM,1 to 50 µM,,,,
"CC(=O)N1CCC(Cn2cncc2Cn2ccc(C(=O)c3cccc4ccccc34)c2)CC1 [Compound 37, 1-[1-(1-Acetylpiperidin-4-yl)methyl-1H-imidazol-5-yl]methyl-3-(naphthalen-1-yl)carbonyl-1H-pyrrole]",,,,,1000 to 10000 nM,350 nM,10000 to 100000 nM,10 to 50 µM
"CN1CCN(C(=O)c2cn(Cc3cncn3CC3CCN(C(=O)OCc4ccc5ccccc5c4)CC3)cc2-c2cccc3ccccc23)CC1 [Compound 45, 3-(4-Methylpiperazin-1-yl)carbonyl-4-(naphthalen-1-yl)-1-{1-[1-(naphthalen-2-ylmethyloxy)carbonylpiperidin-4-yl]methyl-1H-imidazol-5-yl}methyl-1H-pyrrole]",35 nM,1.8 nM,12 nM,10 µM,,,,
"CN1CCN(C(=O)c2cn(Cc3cncn3CC3CCN(S(C)(=O)=O)CC3)cc2-c2cccc3ccccc23)CC1 [Compound 41, 3-(4-Methylpiperazin-1-yl)carbonyl-1-[1-(1-methylsulfonylpiperidin-4-yl)methyl-1H-imidazol-5-yl]methyl-4-(naphthalen-1-yl)-1H-pyrrole]",50 nM,3 nM,10 nM,10 to 50 µM,,,,
"CN1CCN(C(=O)c2cn(Cc3cncn3CC3CCN(C(=O)N(C)C)CC3)cc2-c2cccc3ccccc23)CC1 [Compound 53, 1-{1-[1-(N,N-Dimethylcarbamoyl)piperidin-4-yl]methyl-1H-imidazol-5-yl}methyl-3-(4-methylpiperazin-1-yl)carbonyl-4-(naphthalen-1-yl)-1H-pyrrole]",50 nM,3 nM,8.5 nM,10 to 50 µM,,,,
"O=C(OCc1ccccc1)N1CCC(Cn2cncc2Cn2cc(C(=O)N3CCOCC3)c(-c3cccc4ccccc34)c2)CC1 [Compound 1, 1-[1-(1-Benzyloxycarbonyl-piperidin-4-ylmethyl)-1H-imidazol-5-ylmethyl]-3-(morpholin-4-yl)carbonyl-4-(naphthalen-1-yl)-1H-pyrrole]",100 nM,8.5 nM,2400 nM,1 to 10 µM,,,,
"COCCN(C)C(=O)c1cn(Cc2cncn2CC2CCN(Cc3ccc(Oc4ccccc4)cc3)CC2)cc1-c1cccc2ccccc12 [Compound 34, 3-[N-(2-Methoxyethyl)-N-methyl]carbamoyl-4-(naphthalen-1-yl)-1-{1-[1-(4-phenoxybenzyl)piperidin-4-ylmethyl]-1H-imidazol-5-ylmethyl}-1H-pyrrole]",10 to 100 nM,11 nM,10 to 100 nM,1 to 10 µM,,,,
"COCCN(C)C(=O)c1cn(Cc2cncn2CC2CCN(C(=O)NC3CCCCC3)CC2)cc1-c1cccc2ccccc12 [Compound 11, 1-{1-[1-(N-Cyclohexylcarbamoyl)-piperidin-4-ylmethyl]-1H-imidazol-5-ylmethyl}-3-[N-(2-methoxyethyl)-N-methyl]carbamoyl-4-(naphthalen-1-yl)-1H-pyrrole]",10 to 100 nM,1 to 10 nM,10 to 1000 nM,1 to 50 µM,,,,
